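Each compound was tested at five concentrations against cells in 96-well plates for 48 hours. The concentration for full growth arrest is given as TGI.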
Tests used:
Experiment in all cases: DTP human tumour cell line panel, 48 h
NCI/ADR-RES ovarian = system: NCI/ADR-RES ovarian
UO-31 renal = system: UO-31 renal
RPMI-8226 leukemia = system: RPMI-8226 leukemia
NCI-H522 lung = system: NCI-H522 lung
OVCAR-8 ovarian = system: OVCAR-8 ovarian
DU-145 prostate = system: DU-145 prostate
SK-MEL-28 melanoma = system: SK-MEL-28 melanoma
SN12C renal = system: SN12C renal
MDA-MB-231 breast = system: MDA-MB-231 breast
SK-MEL-5 melanoma = system: SK-MEL-5 melanoma
SW-620 colon = system: SW-620 colon
MDA-N = system: MDA-N
MALME-3M melanoma = system: MALME-3M melanoma
HCT-15 colon = system: HCT-15 colon
T-47D breast = system: T-47D breast
RXF 393 renal = system: RXF 393 renal
OVCAR-3 ovarian = system: OVCAR-3 ovarian
SF-295 CNS = system: SF-295 CNS
SR leukemia = system: SR leukemia
A549 NSCLC = system: A549 NSCLC
HS 578T breast = system: HS 578T breast
M14 melanoma = system: M14 melanoma
PC-3 prostate = system: PC-3 prostate
UACC-62 melanoma = system: UACC-62 melanoma
SF-268 CNS = system: SF-268 CNS
NCI-H226 lung = system: NCI-H226 lung
EKVX NSCLC = system: EKVX NSCLC
786-0 renal = system: 786-0 renal
U251 CNS = system: U251 CNS
CCRF-CEM leukemia = system: CCRF-CEM leukemia
SK-MEL-2 melanoma = system: SK-MEL-2 melanoma
COLO 205 colon = system: COLO 205 colon
NCI-H460 lung = system: NCI-H460 lung
ACHN renal = system: ACHN renal
BT-549 breast = system: BT-549 breast
K-562 leukemia = system: K-562 leukemia
IGROV1 ovarian = system: IGROV1 ovarian
MCF7 breast = system: MCF7 breast
KM12 colon = system: KM12 colon
OVCAR-5 ovarian = system: OVCAR-5 ovarian
HL-60(TB) leukemia = system: HL-60(TB) leukemia
SK-OV-3 ovarian = system: SK-OV-3 ovarian
SF-539 CNS = system: SF-539 CNS
OVCAR-4 ovarian = system: OVCAR-4 ovarian
SNB-19 CNS = system: SNB-19 CNS
MDA-MB-435 = system: MDA-MB-435
UACC-257 melanoma = system: UACC-257 melanoma
HT29 colon = system: HT29 colon
HCT-116 colon = system: HCT-116 colon
NCI-H23 lung = system: NCI-H23 lung
LOX IMVI melanoma = system: LOX IMVI melanoma
SNB-75 CNS = system: SNB-75 CNS
MOLT-4 leukemia = system: MOLT-4 leukemia
HCC-2998 colon = system: HCC-2998 colon
CAKI-1 renal = system: CAKI-1 renal
HOP-62 NSCLC = system: HOP-62 NSCLC
TK-10 renal = system: TK-10 renal
HOP-92 NSCLC = system: HOP-92 NSCLC
A498 renal = system: A498 renal

Nc1nc2ccc(NCc3ccc(C(=O)NC(CCC(=O)O)C(=O)O)cc3)cc2c(=O)[nH]1 (centres undefined)
TGI (NCI/ADR-RES ovarian): > 100 µM | TGI (UO-31 renal): > 100 µM | TGI (RPMI-8226 leukemia): > 100 µM | TGI (NCI-H522 lung): > 100 µM | TGI (OVCAR-8 ovarian): > 100 µM | TGI (DU-145 prostate): > 100 µM | TGI (SK-MEL-28 melanoma): > 100 µM | TGI (SN12C renal): > 100 µM | TGI (MDA-MB-231 breast): > 100 µM | TGI (SK-MEL-5 melanoma): > 100 µM | TGI (SW-620 colon): > 100 µM | TGI (MDA-N): > 100 µM | TGI (MALME-3M melanoma): > 100 µM | TGI (HCT-15 colon): > 100 µM | TGI (T-47D breast): > 100 µM | TGI (RXF 393 renal): > 100 µM | TGI (OVCAR-3 ovarian): > 100 µM | TGI (SF-295 CNS): > 100 µM | TGI (SR leukemia): > 100 µM | TGI (A549 NSCLC): > 100 µM | TGI (HS 578T breast): > 100 µM | TGI (M14 melanoma): 87.5 µM | TGI (PC-3 prostate): > 100 µM | TGI (UACC-62 melanoma): > 100 µM | TGI (SF-268 CNS): > 100 µM | TGI (NCI-H226 lung): > 100 µM | TGI (EKVX NSCLC): > 100 µM | TGI (786-0 renal): > 100 µM | TGI (U251 CNS): > 100 µM | TGI (CCRF-CEM leukemia): > 100 µM | TGI (SK-MEL-2 melanoma): > 100 µM | TGI (COLO 205 colon): > 100 µM | TGI (NCI-H460 lung): > 100 µM | TGI (ACHN renal): 39.9 µM | TGI (BT-549 breast): > 100 µM | TGI (K-562 leukemia): > 100 µM | TGI (IGROV1 ovarian): > 100 µM | TGI (MCF7 breast): > 100 µM | TGI (KM12 colon): > 100 µM | TGI (OVCAR-5 ovarian): > 100 µM | TGI (HL-60(TB) leukemia): > 100 µM | TGI (SK-OV-3 ovarian): > 100 µM | TGI (SF-539 CNS): > 100 µM | TGI (OVCAR-4 ovarian): > 100 µM | TGI (SNB-19 CNS): > 100 µM | TGI (MDA-MB-435): > 100 µM | TGI (UACC-257 melanoma): > 100 µM | TGI (HT29 colon): > 100 µM | TGI (HCT-116 colon): > 100 µM | TGI (NCI-H23 lung): > 100 µM | TGI (LOX IMVI melanoma): > 100 µM | TGI (SNB-75 CNS): > 100 µM | TGI (MOLT-4 leukemia): > 100 µM | TGI (HCC-2998 colon): > 100 µM | TGI (CAKI-1 renal): > 100 µM | TGI (HOP-62 NSCLC): > 100 µM | TGI (TK-10 renal): > 100 µM | TGI (HOP-92 NSCLC): > 100 µM

COC(=O)/C=C/CC(=O)NS(C)(=O)=O
TGI (NCI/ADR-RES ovarian): > 10 µM | TGI (UO-31 renal): > 10 µM | TGI (RPMI-8226 leukemia): > 10 µM | TGI (NCI-H522 lung): > 10 µM | TGI (OVCAR-8 ovarian): > 10 µM | TGI (DU-145 prostate): > 10 µM | TGI (SK-MEL-28 melanoma): > 10 µM | TGI (SN12C renal): > 10 µM | TGI (MDA-MB-231 breast): > 10 µM | TGI (SK-MEL-5 melanoma): > 10 µM | TGI (SW-620 colon): > 10 µM | TGI (MDA-N): > 10 µM | TGI (MALME-3M melanoma): > 10 µM | TGI (HCT-15 colon): > 10 µM | TGI (T-47D breast): > 10 µM | TGI (RXF 393 renal): > 10 µM | TGI (OVCAR-3 ovarian): > 10 µM | TGI (SF-295 CNS): > 10 µM | TGI (SR leukemia): > 10 µM | TGI (A549 NSCLC): > 10 µM | TGI (HS 578T breast): > 10 µM | TGI (M14 melanoma): > 10 µM | TGI (PC-3 prostate): > 10 µM | TGI (UACC-62 melanoma): > 10 µM | TGI (SF-268 CNS): > 10 µM | TGI (NCI-H226 lung): > 10 µM | TGI (EKVX NSCLC): > 10 µM | TGI (786-0 renal): > 10 µM | TGI (U251 CNS): > 10 µM | TGI (CCRF-CEM leukemia): > 10 µM | TGI (SK-MEL-2 melanoma): > 10 µM | TGI (COLO 205 colon): > 10 µM | TGI (NCI-H460 lung): > 10 µM | TGI (ACHN renal): > 10 µM | TGI (BT-549 breast): > 10 µM | TGI (A498 renal): > 10 µM | TGI (IGROV1 ovarian): > 10 µM | TGI (MCF7 breast): > 10 µM | TGI (KM12 colon): > 10 µM | TGI (OVCAR-5 ovarian): > 10 µM | TGI (HL-60(TB) leukemia): > 10 µM | TGI (SK-OV-3 ovarian): > 10 µM | TGI (SF-539 CNS): > 10 µM | TGI (OVCAR-4 ovarian): > 10 µM | TGI (SNB-19 CNS): > 10 µM | TGI (MDA-MB-435): > 10 µM | TGI (UACC-257 melanoma): > 10 µM | TGI (HT29 colon): > 10 µM | TGI (HCT-116 colon): > 10 µM | TGI (NCI-H23 lung): > 10 µM | TGI (LOX IMVI melanoma): > 10 µM | TGI (MOLT-4 leukemia): > 10 µM | TGI (HCC-2998 colon): > 10 µM | TGI (CAKI-1 renal): > 10 µM | TGI (HOP-62 NSCLC): > 10 µM | TGI (TK-10 renal): > 10 µM
